Test results reported in PubChem BioAssay (NCI).
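GI50: concentration for 50% inhibition of growth. At the TGI there is no net growth.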

Key:
Assay in all cases: DTP human tumour cell line panel, 384-well format
[1] = tested on: SK-OV-3 ovarian
[2] = tested on: OVCAR-5 ovarian
[3] = tested on: MALME-3M melanoma
[4] = tested on: OVCAR-8 ovarian
[5] = tested on: COLO 205 colon
[6] = tested on: T-47D breast
[7] = tested on: SK-MEL-5 melanoma
[8] = tested on: HOP-62 NSCLC
[9] = tested on: SN12C renal
[10] = tested on: SF-539 CNS
[11] = tested on: HCC-2998 colon
[12] = tested on: LOX IMVI melanoma
[13] = tested on: UACC-257 melanoma
[14] = tested on: OVCAR-3 ovarian
[15] = tested on: A498 renal
[16] = tested on: UO-31 renal
[17] = tested on: SK-MEL-28 melanoma
[18] = tested on: MOLT-4 leukemia
[19] = tested on: SR leukemia
[20] = tested on: A549 NSCLC
[21] = tested on: SNB-19 CNS
[22] = tested on: IGROV1 ovarian
[23] = tested on: MCF7 breast
[24] = tested on: MDA-MB-435 melanoma
[25] = tested on: MDA-MB-231 breast
[26] = tested on: KM12 colon
[27] = tested on: SF-268 CNS
[28] = tested on: HCT-15 colon

C=CC(=O)N1C[C@H](COc2nc(Nc3cnn(C)c3)nc3[nH]cc(Cl)c23)[C@@H](OC)C1
TGI [1]: 5.05 µM
GI50 [2]: 5.34 µM
TGI [2]: > 100 µM
GI50 [3]: 8.86 µM
TGI [3]: 21.2 µM
GI50 [4]: 4.15 µM
TGI [4]: 18.7 µM
GI50 [5]: 0.54 µM
TGI [5]: 11.1 µM
GI50 [6]: 4.63 µM
TGI [6]: 18 µM
GI50 [7]: 3.01 µM
TGI [7]: 12.2 µM
GI50 [8]: 4.05 µM
TGI [8]: 26.5 µM
GI50 [9]: 0.633 µM
TGI [9]: 12.8 µM
GI50 [10]: 1.21 µM
TGI [10]: 3.2 µM
GI50 [11]: 3.86 µM
TGI [11]: 15 µM
GI50 [12]: 1.52 µM
TGI [12]: 11.6 µM
GI50 [13]: 5.21 µM
TGI [13]: 17.1 µM
GI50 [14]: 2.72 µM
TGI [14]: 23.6 µM
GI50 [15]: 0.584 µM
TGI [15]: 21.4 µM
GI50 [16]: 7.62 µM
TGI [16]: > 100 µM
GI50 [17]: 3.82 µM
TGI [17]: 16.8 µM
GI50 [18]: 0.308 µM
TGI [18]: 0.833 µM
GI50 [19]: 0.19 µM
TGI [19]: 0.351 µM
GI50 [20]: 2.25 µM
TGI [20]: 13.1 µM
GI50 [21]: 5.2 µM
TGI [21]: 23.1 µM
GI50 [22]: 0.852 µM
TGI [22]: 3.31 µM
GI50 [23]: 2.02 µM
TGI [23]: 15.6 µM
GI50 [24]: 4.27 µM
TGI [24]: 20.9 µM
GI50 [25]: 2.78 µM
TGI [25]: > 100 µM
GI50 [26]: 0.287 µM
TGI [26]: 14.3 µM
GI50 [27]: 1.93 µM
TGI [27]: 12.3 µM
GI50 [28]: 2.93 µM
TGI [28]: 12.3 µM
